Measurements from publication PMC3914206.

Key:
Type in all cases: binding
panel of 442 kinases [1] = molecular target: T1, panel of 442 kinases (Homo sapiens, UniProt Q02750); settings: Compound Concentration 10 µM
T1 construct: purchased KINOMEscan
Description: (§1) We assessed the selectivity of members of this scaffold using the KINOMEscan methodology across a near comprehensive panel of 442 kinases [[18,27]].

panel of 442 kinases [2] = molecular target: T2, panel of 442 kinases (Homo sapiens, UniProt Q9H422); settings: Compound Concentration 10 µM
T2 construct: purchased KINOMEscan
T2 sequence (Q9H422 whole entry): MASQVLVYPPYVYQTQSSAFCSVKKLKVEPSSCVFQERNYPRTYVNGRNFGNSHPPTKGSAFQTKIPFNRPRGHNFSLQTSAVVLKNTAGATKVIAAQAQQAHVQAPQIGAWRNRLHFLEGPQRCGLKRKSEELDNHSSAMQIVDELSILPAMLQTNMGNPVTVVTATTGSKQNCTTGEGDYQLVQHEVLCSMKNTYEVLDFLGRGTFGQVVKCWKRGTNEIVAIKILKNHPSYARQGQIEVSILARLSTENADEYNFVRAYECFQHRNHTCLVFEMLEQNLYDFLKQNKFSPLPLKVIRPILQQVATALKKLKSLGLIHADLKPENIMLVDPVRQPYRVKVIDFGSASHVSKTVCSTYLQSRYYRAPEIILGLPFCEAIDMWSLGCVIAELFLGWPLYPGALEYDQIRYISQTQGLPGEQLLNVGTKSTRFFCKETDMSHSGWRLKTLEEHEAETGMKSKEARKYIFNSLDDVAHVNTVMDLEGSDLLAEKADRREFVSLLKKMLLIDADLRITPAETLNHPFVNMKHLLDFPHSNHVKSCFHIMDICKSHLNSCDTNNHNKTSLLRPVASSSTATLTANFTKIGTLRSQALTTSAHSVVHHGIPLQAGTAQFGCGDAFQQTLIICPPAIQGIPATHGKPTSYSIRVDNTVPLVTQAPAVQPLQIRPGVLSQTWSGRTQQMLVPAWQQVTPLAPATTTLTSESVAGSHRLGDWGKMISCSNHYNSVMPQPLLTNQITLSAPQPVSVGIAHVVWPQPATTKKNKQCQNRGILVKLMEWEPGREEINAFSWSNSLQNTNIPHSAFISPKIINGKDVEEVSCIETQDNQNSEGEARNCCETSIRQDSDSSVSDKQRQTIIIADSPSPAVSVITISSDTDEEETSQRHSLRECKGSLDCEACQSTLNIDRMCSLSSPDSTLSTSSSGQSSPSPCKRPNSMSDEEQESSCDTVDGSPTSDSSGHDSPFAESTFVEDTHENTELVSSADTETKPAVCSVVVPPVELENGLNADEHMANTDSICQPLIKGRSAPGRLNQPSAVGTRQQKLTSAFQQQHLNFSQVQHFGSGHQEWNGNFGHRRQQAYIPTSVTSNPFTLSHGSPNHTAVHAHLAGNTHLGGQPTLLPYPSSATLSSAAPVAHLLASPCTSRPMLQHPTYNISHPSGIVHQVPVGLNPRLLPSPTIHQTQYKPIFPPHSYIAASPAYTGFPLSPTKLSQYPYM
Description: as §1

panel of 442 kinases [3] = molecular target: T3, panel of 442 kinases (Homo sapiens, UniProt Q9UPE1); settings: kinase SRPK3; compound concentration 10 µM
T3 construct: purchased KINOMEscan
T3 sequence (Q9UPE1 whole entry): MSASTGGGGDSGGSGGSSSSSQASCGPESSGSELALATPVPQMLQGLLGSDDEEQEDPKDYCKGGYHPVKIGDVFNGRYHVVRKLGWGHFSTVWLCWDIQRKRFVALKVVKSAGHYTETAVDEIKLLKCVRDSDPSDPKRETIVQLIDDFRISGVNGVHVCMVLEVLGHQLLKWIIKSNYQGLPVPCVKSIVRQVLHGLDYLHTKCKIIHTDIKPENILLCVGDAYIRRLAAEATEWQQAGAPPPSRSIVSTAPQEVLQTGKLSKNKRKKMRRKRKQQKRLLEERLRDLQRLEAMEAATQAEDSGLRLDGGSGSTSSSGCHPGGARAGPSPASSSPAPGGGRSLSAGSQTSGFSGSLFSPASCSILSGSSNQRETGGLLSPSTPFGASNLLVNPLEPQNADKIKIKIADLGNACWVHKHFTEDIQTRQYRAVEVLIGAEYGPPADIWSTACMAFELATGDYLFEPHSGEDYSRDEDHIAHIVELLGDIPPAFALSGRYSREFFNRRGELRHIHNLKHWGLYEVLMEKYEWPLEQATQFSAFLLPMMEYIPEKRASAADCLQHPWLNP
Description: as §1

T1 sequence (Q02750 whole entry): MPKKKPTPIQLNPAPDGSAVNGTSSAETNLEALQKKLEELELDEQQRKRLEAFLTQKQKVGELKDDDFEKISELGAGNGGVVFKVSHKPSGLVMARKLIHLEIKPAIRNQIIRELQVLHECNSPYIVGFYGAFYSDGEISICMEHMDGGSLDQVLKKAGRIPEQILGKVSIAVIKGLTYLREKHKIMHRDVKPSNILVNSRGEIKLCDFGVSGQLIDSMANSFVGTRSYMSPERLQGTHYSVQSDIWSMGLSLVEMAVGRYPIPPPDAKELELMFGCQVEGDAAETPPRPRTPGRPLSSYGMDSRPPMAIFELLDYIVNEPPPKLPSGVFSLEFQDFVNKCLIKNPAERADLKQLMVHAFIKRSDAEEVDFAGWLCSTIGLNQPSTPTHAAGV

Row | SMILES | KINOMEscan: MEK1 (panel of 442 kinases [1]) | KINOMEscan: HIPK3 (panel of 442 kinases [2]) | % Ctrl, SRPK3 (panel of 442 kinases [3]) [% Ctrl]
1 | COc1cc(C(=O)N2CCC(N3CCN(C)CC3)CC2)ccc1Nc1ncc2c(n1)N(C)c1ccccc1C(=O)N2C [15 (LRRK2-IN-1)] | 100 | 89 | 72
2 | CCOc1cc(C(=O)N2CCC(N3CCN(C)CC3)CC2)ccc1Nc1ncc2c(n1)N(C1CCCC1)c1ccccc1C(=O)N2C [Compound 26] | 100 | 92 | 100
3 | COc1cc(C(=O)N2CCC(N3CCN(C)CC3)CC2)ccc1Nc1ncc2c(n1)N1CCc3cccc(c31)C(=O)N2C [Compound 24] | 75 | 48 | 91
4 | COc1cc(C(=O)N2CCC(N3CCN(C)CC3)CC2)ccc1Nc1ncc2c(n1)N(C1CCCC1)c1ccccc1C(=O)N2C [Compound 25, 11-cyclopentyl-2-((2-methoxy-4-(4-(4-methylpiperazin-1-yl)piperidine-1-carbonyl)phenyl)amino)-5-methyl-5H-benzo[e]pyrimido[5,4-b][1,4]diazepin-6(11H)-one] | 68 | 100 | 91
